From patent EP0167954A2, “1-Hydroxy-cytorhodines, a microbiological method for their preparation and their use as cytostatic agents” (HOECHST AKTIENGESELLSCHAFT, priority 1984, dated 1986)
≈ marks a conversion by molar mass, not a printed value. Where two headings read alike, the source gives them in different places.

Tests used:
[1] = system: L1210 Leukämiezellen der Maus; test: Proliferation assay (incorporation of C14-labelled thymidine); assay type: cell-based; settings: Mus musculus
Description: (§1) Die Bestimmung der zytostatischen Wirksamkeit der hier beschriebenen Verbindungen erfolgte an L1210 Leukämiezellen der Maus. Im einzelnen wurden folgende Testsysteme verwendet:
Bei dieser Methode wird in vitro nach Inkubation der Zellen mit unterschiedlichen Konzentrationen der Testsubstanz ermittelt, inwieweit die Zellen radioaktive DNA-Vorläufer (z.B. C14 markiertes Thymidin) einbauen können. Unbehandelte L1210 Zellen werden den gleichen Testbedingungen unterworfen und dienen als Kontrolle. Im folgenden ist die Methode kurz beschrieben.
L1210 Zellen in exponentieller Wachstumsphase (5 x 10^3/ml in RPMI 1640) werden in einer Mikrotiterplatte 72 Stunden mit unterschiedlichen Konzentrationen der Testsubstanz inkubiert (37°C, 5 % C021 95 % relative Luftfeuchte). Kontrolle bestehen aus Zellen, die lediglich mit frischem Medium inkubiert werden. Alle Bestimmungen werden als 4fach Bestimmungen durchgeführt. Nach 65 Stunden werden 50 µl C-1 14 Thymidin (1,5 µc/ml) zugegeben, um die DNA der Zelle radioaktiv zu markieren. Nach 7 Stunden Inkubation werden die Zellen abgesaugt, die DNA mit 5%iger Trichloressigsäure gefällt und nacheinander mit Wasser bzw. Methanol gewaschen.
Nach Trocknung bei 50°C wird die in die DNA eingebaute Radioaktivität nach Zugabe von 5 ml Szintillationsflüssigkeit ermittelt.
Die Ergebnisse werden angegeben als Verhältnis des Szintillationsindex nach Inkubation mit der Testsubstanz in Prozent der unbehandelten Kontrolle. Aus den so erhaltenen Meßwerten wird die Dosiswirkungskurve ermitelt und graphisch die IC50, d.h. die Konzentration, die unter Testbedingungen den Einbau von radioaktivem Thymidin um 50 % gegenüber der Kontrolle erniedrigt, ermittelt. Die IC50 Werte der hier beschriebenen Verbindungen im Vergleich zu Adriamycin (ADM) werden in der Tabelle 1 zusammengefaßt.

L1210 Leukämiezellen = test: Colony formation of L1210 leukaemia cells in soft agar; assay type: cell-based, Maus; settings: Mus musculus
Description: as §1
b) Koloniebildung von L1210 Leukämiezellen in soft agar.
Diese Methode dient zum Nachweis eines Einflusses der Testsubstanzen auf das Wachstumsverhalten der Zellen über mehrere Generationen (bei einer Zellzykluszeit von 10-12 Stunden werden in der Testzeit von 7 Tagen ca. 14 aufeinanderfolgende Generationen beobachtet).
Zytostatisch wirksame Substanzen bewirken in diesem Test eine Reduktion der zu beobachtenden Koloniezahl gegenüber einer unbehandelten Kontrolle. Im einzelnen wird der Test wie folgt durchgeführt:
500 Leukämiezellen pro Platte werden mit unterschiedlichen Konzentrationen von Testsubstanz 1 Stunde bei 37°C inkubiert. Anschließend werden die Zellen zweimal mit McCoy5A Medium gewaschen und schließlich in Petrischalen nach Zusatz von 0,3 % Agar ausgegossen. Kontrollen werden lediglich mit frischem Medium inkubiert. Anstelle der lstündigen Inkubation werden in manchen Fällen unterschiedliche Konzentrationen und Testsubstanz der oberen Agarschicht zugemischt, um so eine kontinuierliche Exposition der Zellen über die gesamte Inkubationszeit zu erreichen. Nach Erstarren des Agars werden die Platten im Brutschrank 7 Tage bei 37°C inkubiert (5 % C02, 95 % relative Luftfeuchtigkeit). Anschließend wird die Anzahl der entstandenen Kolonien mit einem Durchmesser 60 p gezählt. Die Ergebnisse werden angegeben als Koloniezahl in behandelten Agarplatten in Prozent der unbehandelten Kontrolle. Aus der so erhaltenen Dosiswirkungskurve wird die IC50 als Maß für die Wirksamkeit der Substanz ermittelt. Die Ergebnisse für die hier beschriebenen Verbindungen im Vergleich zu Adriamycin sind in der Tabelle 1 zusammengefaßt.

[2] = L1210, read-out: Proliferationstest IC50
[3] = L1210, 168 h, read-out: Koloniebildungstest IC50, 7 Tage Inkubation
[4] = L1210, read-out: Koloniebildungstest IC50, 1 Stunde Inkubation

IC50 ([1]; L1210 cells, 72 h incubation with test substance, C14 thymidine added after 65 h, IC50 read graphically, read-out: Proliferationstest IC50) [ng/mL] | IC50 (L1210 Leukämiezellen; 168 h, L1210 cells in soft agar, continuous exposure (substance mixed into upper agar layer), 7 days at 37°C, read-out: Koloniebildungstest IC50, 7 Tage Inkubation) [ng/mL] | IC50 (L1210 Leukämiezellen; L1210 cells, 1 h incubation with substance at 37°C, washed, then 7 days in soft agar, read-out: Koloniebildungstest IC50, 1 Stunde Inkubation) [ng/mL] | SMILES | IC50 [1, 2] [ng/mL] | IC50 (L1210 Leukämiezellen; [3]) [ng/mL] | IC50 (L1210 Leukämiezellen; [4]) [ng/mL]
 |  |  | CCC1(O)CC(OC2CC(N(C)C)C(OC3CCC(OC4CCC(O)C(C)O4)C(C)O3)C(C)O2)c2c(O)c3c(c(O)c2C1OC1CC(N(C)C)C(OC2CCC(OC4CCC(O)C(C)O4)C(C)O2)C(C)O1)C(=O)c1c(O)ccc(O)c1C3=O (stereo not drawn) [1-OH-Cytorhodin A, 1-Hydroxy-Cytorhodin A] | 3 (≈ 2.56 nM) | 2.8 (≈ 2.39 nM) | 26 (≈ 22.2 nM)
2.8 (≈ 2.39 nM) | 0.45 (≈ 0.385 nM) | 2.4 (≈ 2.05 nM) | CCC1(O)CC(OC2CC(N(C)C)C(OC3CCC(OC4C=CC(=O)C(C)O4)C(C)O3)C(C)O2)c2c(O)c3c(c(O)c2C1OC1CC(N(C)C)C(OC2CCC(OC4CCC(O)C(C)O4)C(C)O2)C(C)O1)C(=O)c1c(O)ccc(O)c1C3=O (stereo not drawn) [1-OH-Cytorhodin V, 1-Hydroxy-Cytorhodin V] |  |  | 
 |  |  | COc1cccc2c1C(=O)c1c(O)c3c(c(O)c1C2=O)C[C@@](O)(C(=O)CO)C[C@@H]3O[C@H]1C[C@H](N)[C@H](O)[C@H](C)O1 [ADM, Adriamycin, reference compound] | 6 (≈ 11 nM) | 22 (≈ 40.5 nM) | 44 (≈ 81 nM)
